Experimental data taken from PubChem BioAssay AID330 (DTP/NCI, 2004).
Several values for one entry are separate records, joined by “and”; a condition that tells them apart may be missing. Identical values can stand only once. Inconclusive results and toxic doses are left out. Rule for the calls: active = survival T/C of 150% or more; inactive = T/C below 125% in these data.

Test system: P388 leukemia ip, CD2F1 mice, survival T/C
Assay: NCI In Vivo Anticancer Drug Screen. Data for tumor model P388 Leukemia (intraperitoneal) in CD2F1 (CDF1) mice
Conditions: endpoint: median survival time, higher = longer survival
In short: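 Mice carrying the transplanted tumor received test compound or vehicle. Survival was recorded in each group, and the value is the treated-group measurement divided by that of the vehicle-treated control group.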

[1] = dose: 50.0 mg/kg/injection, schedule: Q01DX005 (ip), vehicle: saline with Tween-80
[2] = dose: 50.0 mg/kg/injection, schedule: Q01DX005 (ip), vehicle: Klucel (hydroxypropylcellulose) (HPC)
[3] = dose: 100.0 mg/kg/injection, schedule: Q01DX005 (ip), vehicle: Klucel (hydroxypropylcellulose) (HPC)
[4] = dose: 200.0 mg/kg/injection, schedule: Q01DX005 (ip), vehicle: Klucel (hydroxypropylcellulose) (HPC)
[5] = dose: 50.0 mg/kg/injection, schedule: Q01DX009 (ip), vehicle: saline with Tween-80
[6] = dose: 100.0 mg/kg/injection, schedule: Q01DX009 (ip), vehicle: saline with Tween-80
[7] = dose: 200.0 mg/kg/injection, schedule: Q01DX009 (ip), vehicle: saline with Tween-80
[8] = dose: 12.5 mg/kg/injection, schedule: Q01DX009 (ip), vehicle: saline with Tween-80
[9] = dose: 25.0 mg/kg/injection, schedule: Q01DX009 (ip), vehicle: saline with Tween-80
[10] = dose: 15.0 mg/kg/injection, schedule: Q01DX005 (ip), vehicle: saline with Tween-80
[11] = dose: 30.0 mg/kg/injection, schedule: Q01DX005 (ip), vehicle: saline with Tween-80
[12] = dose: 60.0 mg/kg/injection, schedule: Q01DX005 (ip), vehicle: saline with Tween-80

Measured: T/C

COc1ccc(C2(O)OCC(COc3cc(C)c(Cl)c(C)c3)O2)cc1OC (stereo not given)
inactive: dose: 60.0 mg/kg/injection, schedule: Q01DX005 (ip), vehicle: DMSO 114 % of control | dose: 120.0 mg/kg/injection, schedule: Q01DX005 (ip), vehicle: DMSO 123 % of control | dose: 240.0 mg/kg/injection, schedule: Q01DX005 (ip), vehicle: DMSO 109 % of control

CC1=CC(O)C(O)C2(C)C1CC1OC(=O)CC3C(C)C(O)C(=O)C2C13CO (stereo not given)
inactive: dose: 12.5 mg/kg/injection, schedule: Q01DX005 (ip), vehicle: saline with Tween-80 97 % of control | dose: 25.0 mg/kg/injection, schedule: Q01DX005 (ip), vehicle: saline with Tween-80 100 % of control | [1] 102 % of control

CS(=O)(=O)C(CCC(=O)c1ccc2ccccc2c1)C(=O)c1ccccc1 (stereo not given)
inactive: [2] 88 % of control | [3] 89 % of control | [4] 92 % of control

CC(CN1C(=O)CCC1=O)N1C(=O)CCC1=O (stereo not given)
inactive: dose: 50.0 mg/kg/injection, schedule: Q01DX005 (ip), vehicle: saline 100 % of control | dose: 100.0 mg/kg/injection, schedule: Q01DX005 (ip), vehicle: saline 103 % of control | dose: 200.0 mg/kg/injection, schedule: Q01DX005 (ip), vehicle: saline 100 % of control

COc1ccc2c(c1)C13C(=O)OC4(C)OC(C)(CC41)C3C2=O (stereo not given)
inactive: dose: 100.0 mg/kg/injection, schedule: Q01DX001 (ip), vehicle: Klucel (hydroxypropylcellulose) (HPC) 98 % of control | dose: 200.0 mg/kg/injection, schedule: Q01DX001 (ip), vehicle: Klucel (hydroxypropylcellulose) (HPC) 104 % of control | dose: 400.0 mg/kg/injection, schedule: Q01DX001 (ip), vehicle: Klucel (hydroxypropylcellulose) (HPC) 95 % of control

OCC1CC(O)CN2CCc3c([nH]c4ccccc34)C2C1 (stereo not given)
inactive: dose: 12.5 mg/kg/injection, schedule: Q01DX005 (ip), vehicle: Klucel (hydroxypropylcellulose) (HPC) 99 % of control | dose: 25.0 mg/kg/injection, schedule: Q01DX005 (ip), vehicle: Klucel (hydroxypropylcellulose) (HPC) 99 % of control | [2] 101 % of control

CCCCC(C)C(=O)/C=C/c1ccc(Cl)c(Cl)c1 (stereo not given)
inactive: [5] 105 % of control | [6] 100 % of control | [7] 106 % of control

Nc1nccc2c1ncn2C1OC(CO)C(O)C1O (stereo not given)
inactive: dose: 4.67 mg/kg/injection, schedule: Q03HX024 (ip), vehicle: saline with Tween-80 110 % of control | dose: 4.69 mg/kg/injection, schedule: Q03HX024 (ip), vehicle: saline with Tween-80 114 % of control | dose: 9.38 mg/kg/injection, schedule: Q03HX024 (ip), vehicle: saline with Tween-80 111 % of control and 112 % of control | [8] 94 % of control and 97 % of control | dose: 18.75 mg/kg/injection, schedule: Q03HX024 (ip), vehicle: saline with Tween-80 97 % of control | [9] 92 % of control and 93 % of control | dose: 37.5 mg/kg/injection, schedule: Q03HX024 (ip), vehicle: saline with Tween-80 112 % of control and 117 % of control | [6] 88 % of control and 94 % of control | [7] 86 % of control

CC(C)N1CCC(Oc2ccc3ccccc3n2)C1 (stereo not given)
inactive: dose: 50.0 mg/kg/injection, schedule: Q01DX009 (ip), vehicle: Klucel (hydroxypropylcellulose) (HPC) 100 % of control | dose: 100.0 mg/kg/injection, schedule: Q01DX009 (ip), vehicle: Klucel (hydroxypropylcellulose) (HPC) 91 % of control

COc1cc(OC(=O)NCCCl)cc(OC)c1OC
inactive: [2] 101 % of control | [3] 108 % of control | [4] 92 % of control

CCOC(=O)C(CC)C(O)(c1ccc2c(c1)OCO2)c1cc(OC)c(OC)c(OC)c1 (stereo not given)
inactive: [2] 96 % of control | [3] 94 % of control | [4] 93 % of control

O=S(=O)(C1=C[C@H](O)C[C@@H]1O)c1ccccc1
inactive: dose: 60.0 mg/kg/injection, schedule: Q01DX005 (ip), vehicle: Klucel (hydroxypropylcellulose) (HPC) 98 % of control | dose: 120.0 mg/kg/injection, schedule: Q01DX005 (ip), vehicle: Klucel (hydroxypropylcellulose) (HPC) 107 % of control | dose: 240.0 mg/kg/injection, schedule: Q01DX005 (ip), vehicle: Klucel (hydroxypropylcellulose) (HPC) 100 % of control

COc1cc(OC)c2c(c1Cl)OCC2=O
inactive: dose: 50.0 mg/kg/injection, schedule: Q01DX009 (ip), vehicle: saline sonified 95 % of control | dose: 100.0 mg/kg/injection, schedule: Q01DX009 (ip), vehicle: saline sonified 104 % of control | dose: 200.0 mg/kg/injection, schedule: Q01DX009 (ip), vehicle: saline sonified 100 % of control

Cc1cnc2c(c1)CCCC2C(N)=S (stereo not given)
inactive: dose: 50.0 mg/kg/injection, schedule: Q01DX009 (ip), vehicle: saline 99 % of control | dose: 100.0 mg/kg/injection, schedule: Q01DX009 (ip), vehicle: saline 95 % of control | dose: 200.0 mg/kg/injection, schedule: Q01DX009 (ip), vehicle: saline 107 % of control

COc1ccc(N=N/N=c2\sc3cc(OC)ccc3n2C)cc1
inactive: dose: 7.5 mg/kg/injection, schedule: Q01DX005 (ip), vehicle: saline with Tween-80 113 % of control | [10] 104 % of control | [11] 112 % of control and 117 % of control | [12] 104 % of control

CCOC(=O)C(C)(C)c1nc[nH]c1[N+](=O)[O-]
inactive: dose: 12.5 mg/kg/injection, schedule: Q04DX003 (ip), vehicle: saline with Tween-80 100 % of control | dose: 25.0 mg/kg/injection, schedule: Q04DX003 (ip), vehicle: saline with Tween-80 104 % of control | dose: 50.0 mg/kg/injection, schedule: Q04DX003 (ip), vehicle: saline with Tween-80 100 % of control | dose: 200.0 mg/kg/injection, schedule: Q04DX003 (ip), vehicle: saline with Tween-80 98 % of control | dose: 400.0 mg/kg/injection, schedule: Q04DX003 (ip), vehicle: saline with Tween-80 101 % of control

CCCCCCc1cc(-c2cc(CCCCCC)nc(N)n2)nc(N)n1
inactive: dose: 60.0 mg/kg/injection, schedule: Q01DX005 (ip), vehicle: saline 100 % of control | dose: 120.0 mg/kg/injection, schedule: Q01DX005 (ip), vehicle: saline 115 % of control

NC(=Nc1ccccc1)Nc1ccccc1
inactive: [8] 99 % of control | [9] 104 % of control | [5] 102 % of control

Cc1ccc(NS(=O)(=O)c2ccc([N+](=O)[O-])cc2)c(C)c1
inactive: [6] 100 % of control | [7] 105 % of control | dose: 400.0 mg/kg/injection, schedule: Q01DX009 (ip), vehicle: saline with Tween-80 115 % of control

CC1=C(C(=O)NCc2ccccc2)C(c2cccc([N+](=O)[O-])c2)C(C(=O)NCc2ccccc2)=C(C)N1
inactive: [10] 107 % of control | [11] 90 % of control | [12] 87 % of control

NC(N)=NS(=O)(=O)c1ccc(N=c2c3ccccc3n(-c3ccccc3)c3ccccc23)cc1
inactive: [1] 90 % of control | dose: 100.0 mg/kg/injection, schedule: Q01DX005 (ip), vehicle: saline with Tween-80 87 % of control

c1ccc2c(c1)OC1OC2Oc2ccccc21
inactive: [12] 100 % of control | dose: 120.0 mg/kg/injection, schedule: Q01DX005 (ip), vehicle: saline with Tween-80 100 % of control | dose: 240.0 mg/kg/injection, schedule: Q01DX005 (ip), vehicle: saline with Tween-80 101 % of control

CCC1(C(=O)OC)CCc2c(cc(OC)c3ccccc23)C1=O (stereo not given)
inactive: [2] 87 % of control | [3] 87 % of control | [4] 89 % of control
